How the values were obtained:
Type in all cases: biochemical
[1] = molecular target: adenosine A2B receptor (Homo sapiens (Human), UniProt P29275); assay: Adenosine receptor activity assay (Table 1), A2B activity; conditions: for Ratio: A2A activity to the A2B activity, A2A/A2B; for IC50: read-out: Ave A2B cAMP IC50
[2] = molecular target: adenosine A2A receptor (Homo sapiens (Human), UniProt P29274); assay: Adenosine receptor activity assay (Table 1), A2A activity; conditions: read-out: Ave A2A cAMP IC50
[3] = molecular target: adenosine A1 receptor (Homo sapiens (Human), UniProt P30542); assay: Adenosine receptor activity assay (Table 1), A1 cAMP
Protocol: (§1) Table 1. Compounds (e.g., Adenosine Receptor modulators) and activity assay results. The legend is as follows: A=<10 nM; B=10-50 nM; C=50-100 nM; D=100-500; and E=>500 nM. The ratio corresponds to the A2A activity to the A2B activity; or A2A/A2B.

[4] = molecular target: adenosine A3 receptor (Homo sapiens (Human), UniProt P0DMS8); assay: Adenosine receptor activity assay (Table 1), A3 cAMP
Protocol: as §1

Sequence of adenosine A3 receptor (P0DMS8 whole entry): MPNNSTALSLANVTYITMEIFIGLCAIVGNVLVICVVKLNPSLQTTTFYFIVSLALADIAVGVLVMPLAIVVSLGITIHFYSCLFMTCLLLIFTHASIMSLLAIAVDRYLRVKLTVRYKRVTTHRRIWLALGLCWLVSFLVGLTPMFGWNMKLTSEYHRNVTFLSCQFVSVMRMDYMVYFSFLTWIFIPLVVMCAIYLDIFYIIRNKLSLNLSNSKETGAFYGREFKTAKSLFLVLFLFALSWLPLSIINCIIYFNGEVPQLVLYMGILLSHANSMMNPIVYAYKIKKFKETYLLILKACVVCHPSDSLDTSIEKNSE
Sequence of adenosine A2A receptor (P29274 whole entry): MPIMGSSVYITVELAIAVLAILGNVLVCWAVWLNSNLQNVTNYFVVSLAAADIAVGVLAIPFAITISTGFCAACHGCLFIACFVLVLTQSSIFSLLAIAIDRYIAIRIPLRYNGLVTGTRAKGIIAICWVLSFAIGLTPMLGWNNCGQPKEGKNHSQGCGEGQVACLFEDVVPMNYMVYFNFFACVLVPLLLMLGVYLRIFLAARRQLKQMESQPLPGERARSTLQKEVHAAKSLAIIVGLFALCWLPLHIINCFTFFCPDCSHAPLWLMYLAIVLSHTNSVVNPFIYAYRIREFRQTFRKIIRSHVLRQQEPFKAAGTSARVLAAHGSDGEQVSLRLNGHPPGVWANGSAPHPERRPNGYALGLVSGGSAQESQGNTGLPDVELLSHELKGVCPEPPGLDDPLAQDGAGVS
Sequence of adenosine A2B receptor (P29275 whole entry): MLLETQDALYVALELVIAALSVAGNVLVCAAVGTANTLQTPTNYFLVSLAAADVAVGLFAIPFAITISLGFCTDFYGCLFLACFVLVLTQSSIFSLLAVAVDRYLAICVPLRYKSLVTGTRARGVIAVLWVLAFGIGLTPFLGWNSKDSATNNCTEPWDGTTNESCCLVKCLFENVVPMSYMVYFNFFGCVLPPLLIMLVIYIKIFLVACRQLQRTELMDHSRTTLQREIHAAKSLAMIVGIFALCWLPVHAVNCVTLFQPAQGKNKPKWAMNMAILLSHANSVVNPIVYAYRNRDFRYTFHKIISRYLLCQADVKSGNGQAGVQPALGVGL
Sequence of adenosine A1 receptor (P30542 whole entry): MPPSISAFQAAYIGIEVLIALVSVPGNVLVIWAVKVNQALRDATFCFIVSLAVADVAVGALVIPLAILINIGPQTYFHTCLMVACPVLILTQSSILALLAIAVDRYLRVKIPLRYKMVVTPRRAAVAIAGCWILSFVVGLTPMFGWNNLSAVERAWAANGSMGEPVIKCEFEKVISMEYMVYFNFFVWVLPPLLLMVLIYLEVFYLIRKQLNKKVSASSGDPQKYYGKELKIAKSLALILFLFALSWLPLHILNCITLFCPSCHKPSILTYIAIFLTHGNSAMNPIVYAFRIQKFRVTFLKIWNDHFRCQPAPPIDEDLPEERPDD

Compound: Cc1cc2nc(N[C@@H](C)c3ccccn3)nc(C(N)=O)c2s1 [Example Z480, (S)-6-Methyl-2-((1-(pyridin-2-yl)ethyl)amino)thieno[3,2-d]pyrimidine-4-carboxamide]
- Ratio [1]: 47.68
- IC50 [1]: 0.01 to 0.05 µM
- IC50 [2]: > 0.5 µM
- IC50 [3]: > 0.5 µM
- IC50 [4]: > 0.5 µM

Compound: Cc1cc2nc(N[C@@H](C)c3cncc(F)c3)nc(C(=O)N3CC(N(C)C)C3)c2s1 [Example Z481, (S)-(3-(Dimethylamino)azetidin-1-yl)(2-((1-(5-fluoropyridin-3-yl)ethyl)amino)-6-methylthieno[3,2-d]pyrimidin-4-yl)methanone]
- Ratio [1]: 111.93
- IC50 [1]: 0.01 to 0.05 µM
- IC50 [2]: > 0.5 µM
- IC50 [3]: > 0.5 µM
- IC50 [4]: > 0.5 µM

Compound: COC1(C)CN(C(=O)c2nc(N[C@@H](C)c3ccccn3)nc3cc(C)sc23)C1 [Example Z483, (S)-(3-Methoxy-3-methylazetidin-1-yl)(6-methyl-2-((1-(pyridin-2-yl)ethyl)amino)thieno[3,2-d]pyrimidin-4-yl)methanone]
- Ratio [1]: 30.60
- IC50 [1]: 0.01 to 0.05 µM
- IC50 [2]: 0.1 to 0.5 µM
- IC50 [3]: > 0.5 µM
- IC50 [4]: > 0.5 µM

Compound: Cc1cc2nc(N[C@@H](C)c3cncc(F)c3)nc(C(=O)NCCC3CN(C(=O)OC(C)(C)C)C3)c2s1 [Example Z485, tert-Butyl (S)-3-(2-(2-((1-(5-fluoropyridin-3-yl)ethyl)amino)-6-methylthieno[3,2-d]pyrimidine-4-carboxamido)ethyl)azetidine-1-carboxylate]
- Ratio [1]: 8.16
- IC50 [1]: 0.01 to 0.05 µM
- IC50 [2]: 0.1 to 0.5 µM
- IC50 [3]: 0.1 to 0.5 µM
- IC50 [4]: > 0.5 µM

Compound: CC(=O)Nc1ccc(CCNC(=O)c2nc(N[C@@H](C)c3cncc(F)c3)nc3cc(C)sc23)cc1 [Example Z488, (S)—N-(4-Acetamidophenethyl)-2-((1-(5-fluoropyridin-3-yl)ethyl)amino)-6-methylthieno[3,2-d]pyrimidine-4-carboxamide]
- Ratio [1]: 147.08
- IC50 [1]: < 0.01 µM
- IC50 [2]: > 0.5 µM
- IC50 [3]: > 0.5 µM
- IC50 [4]: > 0.5 µM

Compound: Cc1cc2nc(N[C@@H](C)c3cncc(F)c3)nc(C(=O)NCC[C@@H]3CCNC3)c2s1 [Example Z489, 2-(((S)-1-(5-Fluoropyridin-3-yl)ethyl)amino)-6-methyl-N-(2-((S)-pyrrolidin-3-yl)ethyl)thieno[3,2-d]pyrimidine-4-carboxamide]
- Ratio [1]: 365.84
- IC50 [1]: 0.01 to 0.05 µM
- IC50 [2]: > 0.5 µM
- IC50 [3]: > 0.5 µM
- IC50 [4]: > 0.5 µM

Compound: Cc1cc2nc(N[C@@H](C)c3cncc(F)c3)nc(C(=O)N3CC(CNC(=O)C(C)(C)C)C3)c2s1 [Example Z490, (S)—N-((1-(2-((1-(5-Fluoropyridin-3-yl)ethyl)amino)-6-methylthieno[3,2-d]pyrimidine-4-carbonyl)azetidin-3-yl)methyl)pivalamide]
- Ratio [1]: 10.96
- IC50 [1]: 0.01 to 0.05 µM
- IC50 [2]: 0.1 to 0.5 µM
- IC50 [3]: > 0.5 µM
- IC50 [4]: > 0.5 µM

Compound: Cc1cc2nc(N[C@@H](C)c3cncc(F)c3)nc(C(=O)N3CC[C@@H](NC(=O)OCc4ccccc4)C3)c2s1 [Example Z491, Benzyl ((R)-1-(2-(((S)-1-(5-fluoropyridin-3-yl)ethyl)amino)-6-methylthieno[3,2-d]pyrimidine-4-carbonyl)pyrrolidin-3-yl)carbamate]
- Ratio [1]: 86.94
- IC50 [1]: 0.01 to 0.05 µM
- IC50 [2]: > 0.5 µM
- IC50 [3]: > 0.5 µM
- IC50 [4]: > 0.5 µM

Compound: Cc1cc2nc(N[C@@H](C)c3ccccn3)nc(C(=O)NCc3nccs3)c2s1 [Example Z492, (S)-6-Methyl-2-((1-(pyridin-2-yl)ethyl)amino)-N-(thiazol-2-ylmethyl)thieno[3,2-d]pyrimidine-4-carboxamide]
- Ratio [1]: 8.25
- IC50 [1]: 0.01 to 0.05 µM
- IC50 [2]: 0.1 to 0.5 µM
- IC50 [3]: > 0.5 µM
- IC50 [4]: 0.01 to 0.05 µM

Compound: Cc1cc2nc(N[C@@H](C)c3cncc(F)c3)nc(C(=O)N3CC(CO)C3)c2s1 [Example Z494, (S)-(2-((1-(5-Fluoropyridin-3-yl)ethyl)amino)-6-methylthieno[3,2-d]pyrimidin-4-yl)(3-(hydroxymethyl)azetidin-1-yl)methanone]
- Ratio [1]: 146.92
- IC50 [1]: < 0.01 µM
- IC50 [2]: 0.1 to 0.5 µM
- IC50 [3]: > 0.5 µM
- IC50 [4]: > 0.5 µM

Compound: CCNC(=O)CC1CN(C(=O)c2nc(N[C@@H](C)c3cncc(F)c3)nc3cc(C)sc23)C1 [Example Z495, (S)—N-Ethyl-2-(1-(2-((1-(5-fluoropyridin-3-yl)ethyl)amino)-6-methylthieno[3,2-d]pyrimidine-4-carbonyl)azetidin-3-yl)acetamide]
- Ratio [1]: 23.37
- IC50 [1]: < 0.01 µM
- IC50 [2]: 0.05 to 0.1 µM
- IC50 [3]: > 0.5 µM
- IC50 [4]: 0.05 to 0.1 µM

Compound: Cc1cc2nc(N[C@@H](C)c3cncc(F)c3)nc(C(=O)NCCC3CCNCC3)c2s1 [Example Z496, (S)-2-((1-(5-Fluoropyridin-3-yl)ethyl)amino)-6-methyl-N-(2-(piperidin-4-yl)ethyl)thieno[3,2-d]pyrimidine-4-carboxamide]
- Ratio [1]: 524.78
- IC50 [1]: 0.01 to 0.05 µM
- IC50 [2]: > 0.5 µM
- IC50 [3]: > 0.5 µM
- IC50 [4]: > 0.5 µM

Compound: Cc1cc2nc(N[C@@H](C)c3cncc(F)c3)nc(C(=O)N3CC(C(N)=O)C3)c2s1 [Example Z504, (S)-1-(2-((1-(5-Fluoropyridin-3-yl)ethyl)amino)-6-methylthieno[3,2-d]pyrimidine-4-carbonyl)azetidine-3-carboxamide]
- Ratio [1]: 287.41
- IC50 [1]: < 0.01 µM
- IC50 [2]: > 0.5 µM
- IC50 [3]: > 0.5 µM
- IC50 [4]: > 0.5 µM

Compound: CCNC(=O)c1ccc(CCNC(=O)c2nc(N[C@@H](C)c3cncc(F)c3)nc3cc(C)sc23)cc1 [Example Z506, (S)—N-(4-(Ethylcarbamoyl)phenethyl)-2-((1-(5-fluoropyridin-3-yl)ethyl)amino)-6-methylthieno[3,2-d]pyrimidine-4-carboxamide]
- Ratio [1]: 22.42
- IC50 [1]: 0.01 to 0.05 µM
- IC50 [2]: > 0.5 µM
- IC50 [3]: > 0.5 µM
- IC50 [4]: > 0.5 µM

Compound: CCOC(=O)N(C)C1CN(C(=O)c2nc(N[C@@H](C)c3cncc(F)c3)nc3cc(C)sc23)C1 [Example Z507, Ethyl (S)-(1-(2-((1-(5-fluoropyridin-3-yl)ethyl)amino)-6-methylthieno[3,2-d]pyrimidine-4-carbonyl)azetidin-3-yl)(methyl)carbamate]
- Ratio [1]: 5.66
- IC50 [1]: 0.01 to 0.05 µM
- IC50 [2]: 0.05 to 0.1 µM
- IC50 [3]: > 0.5 µM
- IC50 [4]: > 0.5 µM

Compound: Cc1cc2nc(N[C@@H](C)c3cncc(F)c3)nc(C(=O)N3CC(N(C)C(=O)CC(C)(C)C)C3)c2s1 [Example Z508, (S)—N-(1-(2-((1-(5-Fluoropyridin-3-yl)ethyl)amino)-6-methylthieno[3,2-d]pyrimidine-4-carbonyl)azetidin-3-yl)-N,3,3-trimethylbutanamide]
- Ratio [1]: 1.06
- IC50 [1]: 0.01 to 0.05 µM
- IC50 [2]: 0.01 to 0.05 µM
- IC50 [3]: > 0.5 µM
- IC50 [4]: > 0.5 µM

Compound: CC(=O)N(C)C1CN(C(=O)c2nc(N[C@@H](C)c3cncc(F)c3)nc3cc(C)sc23)C1 [Example Z509, (S)—N-(1-(2-((1-(5-Fluoropyridin-3-yl)ethyl)amino)-6-methylthieno[3,2-d]pyrimidine-4-carbonyl)azetidin-3-yl)-N-methylacetamide]
- Ratio [1]: 80.91
- IC50 [1]: < 0.01 µM
- IC50 [2]: > 0.5 µM
- IC50 [3]: > 0.5 µM
- IC50 [4]: > 0.5 µM

Compound: CC(C)OC(=O)NC1CN(C(=O)c2nc(N[C@@H](C)c3cncc(F)c3)nc3ccsc23)C1 [Example Z510, Isopropyl (S)-(1-(2-((1-(5-fluoropyridin-3-yl)ethyl)amino)thieno[3,2-d]pyrimidine-4-carbonyl)azetidin-3-yl)carbamate]
- Ratio [1]: 2.03
- IC50 [1]: 0.01 to 0.05 µM
- IC50 [2]: 0.01 to 0.05 µM
- IC50 [3]: > 0.5 µM
- IC50 [4]: > 0.5 µM

Compound: Cc1cc2nc(N[C@@H](C)c3cncc(F)c3)nc(C(=O)N3CC(NC(=O)OC(C)C)C3)c2s1 [Example Z511, Isopropyl (S)-(1-(2-((1-(5-fluoropyridin-3-yl)ethyl)amino)-6-methylthieno[3,2-d]pyrimidine-4-carbonyl)azetidin-3-yl)carbamate]
- Ratio [1]: 2.90
- IC50 [1]: 0.01 to 0.05 µM
- IC50 [2]: 0.01 to 0.05 µM
- IC50 [3]: > 0.5 µM
- IC50 [4]: 0.05 to 0.1 µM

Compound: Cc1cc2nc(N[C@@H](C)c3cncc(F)c3)nc(C(=O)N3CC(NC(=O)CNC(=O)c4ccccc4)C3)c2s1 [Example Z512, (S)—N-(2-((1-(2-((1-(5-Fluoropyridin-3-yl)ethyl)amino)-6-methylthieno[3,2-d]pyrimidine-4-carbonyl)azetidin-3-yl)amino)-2-oxoethyl)benzamide]
- Ratio [1]: 33.02
- IC50 [1]: 0.01 to 0.05 µM
- IC50 [2]: > 0.5 µM
- IC50 [3]: > 0.5 µM
- IC50 [4]: > 0.5 µM

Compound: Cc1cc2nc(N[C@@H](C)c3cncc(F)c3)nc(C(=O)N3CC(NC(=O)C(C)(C)C)C3)c2s1 [Example Z513, (S)—N-(1-(2-((1-(5-Fluoropyridin-3-yl)ethyl)amino)-6-methylthieno[3,2-d]pyrimidine-4-carbonyl)azetidin-3-yl)pivalamide]
- Ratio [1]: 0.18
- IC50 [1]: 0.01 to 0.05 µM
- IC50 [2]: < 0.01 µM
- IC50 [3]: 0.1 to 0.5 µM
- IC50 [4]: 0.01 to 0.05 µM

Compound: Cc1cc2nc(N[C@@H](C)c3cccnc3)nc(C(=O)N3CC(CO)C3)c2s1 [Example Z515, (S)-(3-(Hydroxymethyl)azetidin-1-yl)(6-methyl-2-((1-(pyridin-3-yl)ethyl)amino)thieno[3,2-d]pyrimidin-4-yl)methanone]
- Ratio [1]: 53.11
- IC50 [1]: 0.01 to 0.05 µM
- IC50 [2]: > 0.5 µM
- IC50 [3]: > 0.5 µM
- IC50 [4]: > 0.5 µM

Source: patent US11254686B1 (Corvus Pharmaceuticals, Inc., priority 2017, dated 2022)
